Experimental data from US20250120981A1, “MRTX1133 PHARMACEUTICAL COMPOSITIONS” (MIRATI THERAPEUTICS, INC., priority 2023, published 2025).
“And” between values parts separate entries of the source, which are not always exact repeats. Equal values may be shown once. Read-outs that look alike come from different tables or passages of the source.

Test: Pharmacokinetics in humans, MRTX1133 formulation, oral, single and multiple doses
Format: in vivo
Conditions: for AUC0-12 Accumulation Ratio, Geo Mean / Cmax Accumulation Ratio, Geo Mean / Peak to Trough Ratio, Geo Mean: geometric mean of subjects
Experimental: The pharmacokinetics [PK] of the MRTX1133 formulation after oral administration has been evaluated in 25 subjects across 3 escalating dose frequencies under fasting conditions (200 mg twice daily [BID], 400 mg BID, and 800 mg BID), as well as evaluation of 400 mg BID when administered with a low-fat meal (i.e., under fed conditions). The mean (+standard deviation) single-dose and multiple-dose pharmacokinetic profiles of the evaluated doses are presented in FIG. 9 and FIG. 10, respectively. Individual single- and multiple-dose PK profiles can be found in FIG. 11. For all figures, the X-axis represents nominal time of sample collection (hours [h]) and the Y-axis represents plasma concentration (ng/mL). Table 10 lists PK data following the oral administration of a single dose and multiple doses of MRTX1133 formulation by dose level and subject.

[1] = multiple oral doses of 200 mg BID, fasted
[2] = multiple oral doses of 200 mg BID, fasted, individual subjects
[3] = multiple oral doses of 400 mg BID with a low-fat meal
[4] = multiple oral doses of 400 mg BID with a low-fat meal, individual subjects
[5] = multiple oral doses of 400 mg BID, fasted
[6] = multiple oral doses of 400 mg BID, fasted, individual subjects
[7] = multiple oral doses of 800 mg BID, fasted, Geo Mean of subjects

C#Cc1c(F)ccc2cc(O)cc(-c3ncc4c(N5C[C@H]6CC[C@@H](C5)N6)nc(OC[C@@]56CCCN5C[C@H](F)C6)nc4c3F)c12 [MRTX1133, 4-(4-((1R,5S)-3,8-diazabicyclo[3.2.1]octan-3-yl)-8-fluoro-2-(((2R,7aS)-2-fluorohexahydro-1Hpyrrolizin-7a-yl)methoxy)pyrido[4,3-d]pyrimidin-7-yl)-5-ethynyl-6-fluoronaphthalen-2-ol]
concentration at 0 h (human, plasma, po, 800 mg, single oral dose of 800 mg, fasted, 0 h, individual subjects, read-out: Plasma concentration): 0 ng/mL
concentration at 0.5 h (human, plasma, po, 800 mg, single oral dose of 800 mg, fasted, 0.5 h, mean of subjects, read-out: Plasma concentration, Mean): 235 ng/mL
concentration at 1 h (human, plasma, po, 800 mg, single oral dose of 800 mg, fasted, 1 h, mean of subjects, read-out: Plasma concentration, Mean): 286 ng/mL
concentration at 1.5 h (human, plasma, po, 800 mg, single oral dose of 800 mg, fasted, 1.5 h, mean of subjects, read-out: Plasma concentration, Mean): 151 ng/mL
concentration at 2 h (human, plasma, po, 800 mg, single oral dose of 800 mg, fasted, 2 h, mean of subjects, read-out: Plasma concentration, Mean): 117 ng/mL
concentration at 4 h (human, plasma, po, 800 mg, single oral dose of 800 mg, fasted, 4 h, mean of subjects, read-out: Plasma concentration, Mean): 67.6 ng/mL
concentration at 6 h (human, plasma, po, 800 mg, single oral dose of 800 mg, fasted, 6 h, mean of subjects, read-out: Plasma concentration, Mean): 57.9 ng/mL
concentration at 8 h (human, plasma, po, 800 mg, single oral dose of 800 mg, fasted, 8 h, mean of subjects, read-out: Plasma concentration, Mean): 49.7 ng/mL
concentration at 12 h (human, plasma, po, 800 mg, single oral dose of 800 mg, fasted, 12 h, mean of subjects, read-out: Plasma concentration, Mean): 12.6 ng/mL
concentration at 24 h (human, plasma, po, 800 mg, single oral dose of 800 mg, fasted, 24 h, mean of subjects, read-out: Plasma concentration, Mean): 25.5 ng/mL
AUC(0-t) (human, plasma, po, 800 mg, single oral dose of 800 mg, fasted, Geo Mean of subjects, read-out: AUC0-12): 440 ng·h/mL
AUC0-inf (human, plasma, po, 800 mg, single oral dose of 800 mg, fasted, Geo Mean of subjects, read-out: AUC0-inf): 543 ng·h/mL
AUC(0-t) (human, plasma, po, 800 mg, single oral dose of 800 mg, fasted, Geo Mean of subjects, read-out: AUC0-last): 463 ng·h/mL
Cmax (human, plasma, po, 800 mg, single oral dose of 800 mg, fasted, Geo Mean of subjects, read-out: Cmax): 123 ng/mL
Tmax (human, plasma, po, 800 mg, single oral dose of 800 mg, fasted, Median of subjects, read-out: Tmax): 1.2 h
AUC0-12 Accumulation Ratio, Geo Mean [1]: 0.9
Cmax Accumulation Ratio, Geo Mean [1]: 0.6
Peak to Trough Ratio, Geo Mean [1]: 12.3
AUC0-12 [2]: 181 ng·h/mL and 84.0 ng·h/mL and 42.9 ng·h/mL and 115 ng·h/mL
AUC0-12 Accumulation Ratio [2]: 1.30 and 0.94 and 0.44 and 1.16
AUC0-last [2]: 181 ng·h/mL and 84.0 ng·h/mL and 42.9 ng·h/mL and 115 ng·h/mL and 31.9 ng·h/mL
Cmax [2]: 85.0 ng/mL and 15.0 ng/mL and 49.4 ng/mL and 56.2 ng/mL and 17.1 ng/mL
Cmax Accumulation Ratio [2]: 0.73 and 0.71 and 0.85 and 1.26 and 0.14
Peak to Trough Ratio [2]: 52.1 and 2.75 and 78.2 and 24.9 and 1.02
Tlast [2]: 12 h (4×) and 2.0 h
Tmax [2]: 0.5 h
AUC0-12 Accumulation Ratio, Geo Mean [3]: 1.7
Cmax Accumulation Ratio, Geo Mean [3]: 1.9
Peak to Trough Ratio, Geo Mean [3]: 12.9
AUC0-12 [4]: 1,475 ng · h/mL and 457 ng · h/mL and 107 ng · h/mL and 127 ng · h/mL
AUC0-12 Accumulation Ratio [4]: 2.61 and 1.50 and 2.52 and 0.75
AUC0-last [4]: 1,475 ng · h/mL and 457 ng · h/mL and 107 ng · h/mL and 127 ng · h/mL
Cmax [4]: 390 ng/mL and 250 ng/mL and 48.2 ng/mL and 23.0 ng/mL
Cmax Accumulation Ratio [4]: 4.69 and 2.66 and 1.71 and 0.63
Peak to Trough Ratio [4]: 7.25 and 84.7 and 10.6 and 4.27
Tlast [4]: 12 h
Plasma concentration (multiple oral doses of 400 mg BID, fasted, 0.5 h, individual subjects): 79.1 ng/mL and 58.5 ng/mL and 82.8 ng/mL and 83.0 ng/mL and 29.7 ng/mL and 23.6 ng/mL and 152 ng/mL
Plasma concentration (multiple oral doses of 400 mg BID, fasted, 1 h, individual subjects): 129 ng/mL and 31.5 ng/mL and 61.2 ng/mL and 38.4 ng/mL and 11.5 ng/mL and 44.7 ng/mL and 285 ng/mL
Plasma concentration (multiple oral doses of 400 mg BID, fasted, 1.5 h, individual subjects): 90.2 ng/mL and 28.5 ng/mL and 38.9 ng/mL and 32.3 ng/mL and 15.2 ng/mL and 38.0 ng/mL and 209 ng/mL
Plasma concentration (multiple oral doses of 400 mg BID, fasted, 2 h, individual subjects): 99.0 ng/mL and 27.2 ng/mL and 55.6 ng/mL and 23.4 ng/mL and 21.1 ng/mL and 30.0 ng/mL and 83.1 ng/mL
Plasma concentration (multiple oral doses of 400 mg BID, fasted, 4 h, individual subjects): 82.8 ng/mL and 11.0 ng/mL and 115 ng/mL and 23.8 ng/mL and 5.34 ng/mL and 233 ng/mL and 70.5 ng/mL
Plasma concentration (multiple oral doses of 400 mg BID, fasted, 6 h, individual subjects): 189 ng/mL and 2.51 ng/mL and 45.3 ng/mL and 10.7 ng/mL and 4.38 ng/mL and 148 ng/mL and 43.8 ng/mL
Plasma concentration (multiple oral doses of 400 mg BID, fasted, 8 h, individual subjects): 88.9 ng/mL and 2.27 ng/mL and 33.3 ng/mL and 8.36 ng/mL and 3.68 ng/mL and 110 ng/mL and 35.5 ng/mL
Plasma concentration (multiple oral doses of 400 mg BID, fasted, 12 h, individual subjects): 76.9 ng/mL and 2.76 ng/mL and 31.2 ng/mL and 6.42 ng/mL and 3.71 ng/mL and 42.1 ng/mL and 31.3 ng/mL
AUC0-12 Accumulation Ratio, Geo Mean [5]: 1.6
Cmax Accumulation Ratio, Geo Mean [5]: 1.3
Peak to Trough Ratio, Geo Mean [5]: 11.1
AUC0-12 [6]: 1,237 ng · h/mL and 128 ng · h/mL and 640 ng · h/mL and 211 ng · h/mL and 89.4 ng · h/mL and 1,239 ng · h/mL and 821 ng · h/mL
AUC0-12 Accumulation Ratio [6]: 3.02 and 1.35 and 5.02 and 1.40 and 0.76 and 0.73 and 1.41
AUC0-last [6]: 1,237 ng · h/mL and 128 ng · h/mL and 640 ng · h/mL and 211 ng · h/mL and 89.4 ng · h/mL and 1,239 ng · h/mL and 821 ng · h/mL
Cmax [6]: 189 ng/mL and 58.5 ng/mL and 115 ng/mL and 83.0 ng/mL and 29.7 ng/mL and 233 ng/mL and 285 ng/mL
Cmax Accumulation Ratio [6]: 3.04 and 0.94 and 1.73 and 1.17 and 0.80 and 0.83 and 1.52
Peak to Trough Ratio [6]: 3.30 and 101 and 3.47 and 9.10 and 6.32 and 23.7 and 13.4
Tlast [6]: 12 h
Tmax [6]: 6.0 h and 0.5 h (3×)
AUC0-12 Accumulation Ratio [7]: 1.0
Cmax Accumulation Ratio [7]: 0.8
Peak to Trough Ratio [7]: 9.6
